{
  "source": "patent US7332568B2",
  "about": "“Q3 SPARC deletion mutant and uses thereof” (Abraxis BioScience, Inc., priority 2005, dated 2008)",
  "tested_on": "gp60-mediated caveolar transcytosis",
  "test": "Inhibition of transport of paclitaxel from ABX across endothelial monolayers",
  "type": "cell-based, human",
  "text": "Transport was dependent on albumin.",
  "data": [
    {"molecule": "β-methyl cyclodextrin [BMC]", "values": [
      {"measurement": "effect on transport of paclitaxel from ABX across endothelial monolayers", "value": "inhibited"}
    ]},
    {"molecule": "CCN1C(=O)C=CC1=O", "note": "[NEM]", "values": [
      {"measurement": "effect on transport of paclitaxel from ABX across endothelial monolayers", "value": "inhibited"}
    ]}
  ]
}
